In patent US12351834B2, “Compositions and methods for the treatment of ornithine transcarbamylase deficiency” (Arcturus Therapeutics, Inc., priority 2020, dated 2025):
Like-named read-outs stand apart in the source and are kept apart here.

Legend:
[1] = In vivo tissue lipid clearance in Balb/c mice; design: species or system mouse; details: for half-life / concentration at 28 days / Tmax: Balb/c, mouse; for concentration at 28 days: 28 days post-dose; for ranking of lipid level by tissue / time post-dose by which lipid no longer detected in plasma: single IV bolus 1 mg/kg of the lipid formulation
Method: Additional studies were conducted to evaluate the in vivo tissue clearance profile of Lipid #7 and Lipid #3 in Balb/c mice. The clearance profiles in mouse tissue and plasma can be found in FIG. 25 (for Lipid #7) and FIG. 26 (for Lipid #3). All animals received a single intravenous bolus treatment of 1 mg/kg of the Lipid #7 formulation at a dosing volume of 10 mL/kg. Plasma, liver, kidney, and spleen were collected from mice (n=3 mice per timepoint) at 0, 2, 15, 30 minutes; 1, 2, 4, 6, 8, 12, 24, 48 hours; and 5, 7, 21, 28 days post-dose. All samples were analyzed for Lipid #7 concentrations.
All animals received a single intravenous bolus treatment of 1 mg/kg of the Lipid #3 formulation at a dosing volume of 10 mL/kg. Plasma was collected from mice (n=3 per timepoint) at 0.25, 1, 2, 4, 6, 12, 24, 120, and 168 hours post-dose. Liver, kidney, and spleen were collected from mice (n=3 per timepoint) at 0.033, 0.25, 1, 2, 4, 6, 12, 24, 120, and 168 hours; 1, 2, 3, 4-weeks post-dose. Heart, brain and lungs were collected from mice (n=3 per timepoint) at 0.25 hours; 1, 2-weeks post-dose. Only samples from 0.25 hrs to 1-week post-dose were analyzed for Lipid #3 tissue concentrations.

[2] = system: Spf/ash mice; experiment: Western Blot of mitochondrial and cytosolic liver fractions of Spf/ash mice; type: in vivo, mouse
Method: Spf/ash mice received an IV injection with either PBS or lipid-formulated (as described in Example 1) OTC-mRNAs at 1 mg/kg and 3 mg/kg. WT mice were used as internal controls. Livers were harvested from the mice and sample fractionation was performed on the liver samples, separating the cytosolic and mitochondrial fractions. OTC levels were measured by Western Blot (WB) using human specific (hOTC) and crossreactive (crOTC) antibodies (FIG. 14). […] (CoxIV) was used as a mitochondrial control. OTC protein expression levels were measured by near-infrared fluorescent imaging systems and normalized to total protein.
Spf/ash mice received an IV injection with either PBS or lipid-formulated OTC-mRNAs at 3 mg/kg. WT mice were used as internal controls. Sample fractionation was performed on liver samples harvested from the mice, separating the cytosolic and mitochondrial fractions. OTC levels were measured by Western Blot using a human specific antibody. OTC protein expression levels were measured by near-infrared fluorescent imaging systems and both fractions, normalized to total protein, were plotted (FIG. 15). […] The 2260 compound includes a modified mitochondrial signaling peptide sequence provided herein.

[3] = system: Spf/ash mice; experiment: Urinary orotate levels in Spf/ash mice; type: in vivo, mouse; details: 1 mg/kg and 3 mg/kg IV
Method: Spf/ash mice received an IV injection with either PBS or lipid-formulated OTC-mRNA construct 1799.7 (5MeOU chemistry) at three different doses: 0.3 mg/kg, 1 mg/kg and 3 mg/kg. Urinary orotate levels were determined in untreated wild-type (WT) and both untreated and treated Spf/ash mice. A urinary orotate time course was performed in Spf/ash and WT mice, and urinary orotate levels were measured at each timepoint. The results can be seen in FIG. 12. Urinary orotate was normalized to creatinine, which is represented in the graph on the y-axis throughout the time course and served as a proof-of-concept of functional restoration of OTC activity post-injection.
Spf/ash mice received an IV injection with either PBS or lipid-formulated (as described in Example 1) OTC-mRNA at 1 mg/kg and 3 mg/kg. WT mice were included as an internal control. Urinary orotate levels were measured at 0, 1, 3, 7 and 14 days, and levels were normalized to creatinine (FIG. 16).

[4] = kidney, 1 mg/kg IV, read-out: half-life, kidney (converted)
[5] = liver, 1 mg/kg IV, read-out: half-life, liver (converted)
[6] = plasma, 1 mg/kg IV, read-out: half-life, plasma (converted)

half-life [1, 4] [h]	concentration at 28 days ([1]; kidney, 1 mg/kg IV, read-out: lipid concentration in the kidney) [ng/mL]	half-life [1, 5] [h]	concentration at 28 days ([1]; liver, 1 mg/kg IV, read-out: lipid concentration in the liver) [ng/mL]	half-life [1, 6] [h]	concentration at 28 days ([1]; spleen, 1 mg/kg IV, read-out: lipid concentration in the spleen) [ng/mL]	time post-dose by which lipid no longer detected in plasma [1] [days]	tissue clearance assessment ([1]; 1 mg/kg IV)	detection in brain tissue ([1]; 1 mg/kg IV, either time point post-dose)	time post-dose through which concentrations persisted, all other tissues ([1]; 1 mg/kg IV, close to LLOQ) [h]	time post-dose through which concentrations persisted, liver ([1]; 1 mg/kg IV, close to LLOQ) [h]	Tmax ([1]; kidney, 1 mg/kg IV, read-out: Tmax, kidney) [h]	Tmax ([1]; liver, 1 mg/kg IV, read-out: Tmax, liver) [h]	Tmax ([1]; spleen, 1 mg/kg IV, read-out: Tmax, spleen) [h]	half-life ([1]; spleen, 1 mg/kg IV, read-out: half-life, spleen (converted)) [h]	Molecule	ranking of lipid level by tissue [1]	targeting of expressed OTC to the mitochondria ([2]; 1 mg/kg and 3 mg/kg IV, liver fractions)	human OTC protein level in mitochondrial fraction ([2]; 3 mg/kg IV, liver, normalized to total protein)	dose dependence of urinary orotate reduction [3]	duration of reduced urinary orotate levels ([3]; measured at 0, 1, 3, 7 and 14 days)
234	2.34	84	17.2	57	18.4	≤ 14									CCCCCCCC(CCCCCCC)OC(=O)CCCN(CCCC(=O)OC(CCCCCCC)CCCCCCC)C(=O)SCCCN(C)C [Lipid #7]	liver>spleen>plasma>kidney				
19		22		0.45		≤ 0.17	rapid tissue clearance	not detected in brain tissue	120	168	0.033 to 1	0.033 to 1	1 to 2	24	CCCCCC/C=C\COC(=O)CCCCCN(CCCCCC(=O)OC(CCCCCCC)CCCCCCC)C(=O)SCCN(C)C [Lipid #3]	liver>plasma>spleen>kidney>lung>heart>brain				
															Construct 2260: mRNA construct, SEQ ID NO: 251, encodes modified human OTC protein of SEQ ID NO: 4 (nucleic acid) sense: AGGAUUAUUACAUCAAAACAAAAAGCCGCCACCAUGCUGGUAUUCAACCUGCGCAUCCUGCUGAACAACGCCGCCUUCCGCAACGGCCACAACUUCAUGGUGCGCAACUUCCGCUGCGGCCAGCCCCUGCAGAACCGGGUGCAGCUGAAGGGCCGCGACCUGCUGACCCUGAAGAACUUCACCGGCGAGGAGAUCCGGUACAUGCUGUGGCUGAGCGCCGACCUGAAGUUCCGCAUCAAGCAGAAGGGCGAGUACCUGCCCCUGCUGCAGGGCAAGAGCCUGGGCAUGAUCUUCGAGAAGCGCAGCACCCGCACCCGCCUGAGCACCGAGACAGGCUUCGCCCUGCUGGGCGGCCACCCCUGCUUCCUGACCACCCAGGACAUCCACCUGGGCGUGAACGAGAGCCUGACCGACACCGCCCGCGUGCUGAGCAGCAUGGCCGACGCCGUGCUGGCCCGCGUGUACAAGCAGAGCGACCUGGACACCCUGGCCAAGGAGGCCAGCAUCCCCAUCAUCAACGGCCUGAGCGACCUGUACCACCCCAUCCAGAUCCUGGCCGACUACCUGACCCUGCAGGAGCACUACAGCAGCCUGAAGGGCCUGACCCUGAGCUGGAUCGGCGACGGCAACAACAUCCUGCACAGCAUCAUGAUGAGCGCCGCCAAGUUCGGCAUGCACCUGCAGGCCGCCACCCCCAAGGGCUACGAGCCCGACGCCAGCGUGACCAAGCUGGCCGAGCAGUACGCCAAGGAGAACGGCACCAAGCUGCUGCUGACCAACGACCCCCUGGAGGCCGCCCACGGCGGCAACGUGCUGAUCACCGACACCUGGAUCAGCAUGGGCCAGGAGGAGGAGAAGAAGAAGCGCCUGCAGGCCUUCCAGGGCUACCAGGUGACCAUGAAGACCGCCAAGGUGGCCGCCAGCGACUGGACCUUCCUGCACUGCCUGCCCCGCAAGCCCGAGGAGGUGGACGACGAGGUGUUCUACAGCCCCCGCAGCCUGGUGUUCCCCGAGGCCGAGAACCGCAAGUGGACCAUCAUGGCCGUGAUGGUGAGCCUGCUGACCGACUACAGCCCCCAGCUGCAGAAGCCCAAGUUCUGAGGUCUCUAGUAAUGAGCUGGAGCCUCGGUAGCCGUUCCUCCUGCCCGCUGGGCCUCCCAACGGGCCCUCCUCCCCUCCUUGCACCGGCCCUUCCUGGUCUUUGAAUAAAGUCUGAGUGGGCAGCAUCUAG		can efficiently target the mitochondria	delivers more human OTC than 2016 in the mitochondria	dose-dependent manner	up to 14 days
